This passage reports Inhibition % and IC50 results from patent publication US20250326772A1, “MRGPRX2 ANTAGONISTS, PHARMACEUTICAL COMPOSITION INCLUDING MRGPRX2 ANTAGONIST, AND METHOD OF TREATING MRGPRX2-MEDIATED DISEASE OR DISORDER” (KYORIN PHARMACEUTICAL CO., LTD., priority 2024, published 2025).

The test system of assay [1] is humanized mice (NOG-hGM-CSF/hIL-3 Tg mice). The assay is described as follows: Evans blue vascular permeability assay ((R)-Zinc3573-induced, ear). The settings on record: 10 mg/kg orally, 30 min before intradermal (R)-Zinc3573 3 μM into the ear; Evans blue dye; mean and standard error of mean. In kind it is in vivo. Here is the method:
Experimental Example 2: Evans Blue Vascular Permeability Assay
Twenty-five to twenty-six-week-old humanized mice (NOG-hGM-CSF/hIL-3 Tg mice at 17-18 weeks after transplantation of human umbilical cord blood-derived CD34+ cells; Central Institute for Experimental Animals) were anesthetized with isoflurane and injected intravenously with 200 μL of 0.5% Evans blue (cat. no. 056-04061; FUJIFILM Wako Pure Chemical Corporation). Subsequently, vehicle (0.5w/v % Methyl Cellulose) or 10 mg/kg of EX.381 were orally administered. After 30 minutes, animals were anesthetized with isoflurane and injected intradermally with 10 μL of (R)-Zinc3573 ((R)-Zinc; 3 μM, cat. no. SML1699; Sigma-Aldrich) into the right ear or with saline (0.1% DMSO) into the left ear as a control. Fifteen minutes after intradermal injection, animals were sacrificed and the ears were collected in 1.5 mL tubes. Evans blue dye was extracted from the tissue by adding 150 μL of N, N-dimethyl formamide (cat. no. 04096-34; nacalai tesque) for 12 hours at 55° C. […] The plate was read at 620 nm and 740 nm on a plate reader and the Evans blue dye concentration in each sample was determined by a standard curve using corrected absorbance (corrected absorbance=A620-A740). […] Data is expressed as mean and standard error of mean. […]

The target in another assay is T1, MRGPRX2 (Homo sapiens, UniProt Q96LB1).
T1 sequence (Q96LB1 1-330): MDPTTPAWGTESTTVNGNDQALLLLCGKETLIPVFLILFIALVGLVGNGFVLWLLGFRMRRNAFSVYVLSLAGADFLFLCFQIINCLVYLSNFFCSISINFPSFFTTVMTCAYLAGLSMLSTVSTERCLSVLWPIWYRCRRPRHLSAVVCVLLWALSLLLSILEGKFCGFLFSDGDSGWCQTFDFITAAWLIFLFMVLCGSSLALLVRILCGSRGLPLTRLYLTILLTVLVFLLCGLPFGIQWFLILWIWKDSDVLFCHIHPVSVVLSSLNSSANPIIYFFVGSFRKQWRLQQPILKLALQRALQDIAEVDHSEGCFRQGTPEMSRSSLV
Kind of assay: MRGPRX2 reporter cell assay (NFAT-RE luciferase, Substance P stimulation). The format is cell-based. The settings on record: U2OS cells stably transfected with MRGPRX2 and NFAT-RE luciferase reporter, Substance P at EC80. Put shortly: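 U2OS cells stably expressing MRGPRX2 and an NFAT-RE luc2P reporter, pre-incubated 30 min at 37° C with compound (0.5% DMSO), then stimulated with Substance P at EC80 for 6 h. Luminescence after ONE-GLO; percent inhibition fitted by four-parameter logistic to IC50.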
(In general: A reporter such as luciferase makes a cellular process visible.)

Turning to `[2H]C([2H])([2H])Oc1ccc(C#N)c(-c2c(-c3cn(C)nc3C(F)F)[nH]c3ncccc23)c1` [EX. 381], the Inhibition % in assay [1] was found to be 76.1 ± 12.1%. For the same compound, the half-maximal inhibitory concentration (IC50) (usually the point on the concentration scale where inhibition reaches its midpoint) on MRGPRX2 (class symbols) is below 10 nM.
For the compound `Cn1cc(-c2c(-c3c(C(F)F)nn4c3OC[C@@H](NC(=O)C3CC3)C4)[nH]c3ncccc23)c(OC(F)F)n1` [EX. 559], the half-maximal inhibitory concentration (IC50) is 3 nM on MRGPRX2 and below 10 nM against MRGPRX2 (class symbols).
On MRGPRX2 (class symbols), `C[C@@H](O)C(=O)N[C@@H]1COc2c(-c3[nH]c4ncccc4c3-c3cn(C)nc3OC(F)F)c(C(F)F)nn2C1` [EX. 560] displayed an IC50 below 10 nM.
The same measure, in the same setting: as for `C[C@H](O)C(=O)N[C@@H]1COc2c(-c3[nH]c4ncccc4c3-c3cn(C)nc3OC(F)F)c(C(F)F)nn2C1` [EX. 561], the figure is below 10 nM; as for `Cn1cc(C(=O)N[C@@H]2COc3c(-c4[nH]c5ncccc5c4-c4cn(C)nc4OC(F)F)c(C(F)F)nn3C2)cn1` [EX. 562], below 10 nM; as for `Cn1cc(-c2c(-c3c(C(F)F)nn4c3OC[C@@H](NC(=O)[C@H]3C[C@@](C)(O)C3)C4)[nH]c3ncccc23)c(OC(F)F)n1` [EX. 563], below 10 nM.
Compound `Cn1cc(-c2c(-c3c(C(F)F)nn4c3OC[C@@H](NC(=O)[C@H]3C[C@@H](O)C3)C4)[nH]c3ncccc23)c(OC(F)F)n1` [EX. 564] had an IC50 on MRGPRX2 (class symbols) below 10 nM.
At MRGPRX2 (class symbols), `Cn1cc(-c2c(-c3c(C(F)F)nn4c3OC[C@@H](NC(=O)[C@H]3C[C@H](O)C3)C4)[nH]c3ncccc23)c(OC(F)F)n1` [EX. 565] gave an IC50 below 10 nM.
On the same count and under the same terms, in the case of `Cn1cc(-c2c(-c3c(C(F)F)nn4c3OC[C@@H](NC(=O)OC3CCOC3)C4)[nH]c3ncccc23)c(OC(F)F)n1` (stereo partly shown) [EX. 566] it was below 10 nM.
On MRGPRX2 (class symbols), `C[C@H](O)COC(=O)N[C@@H]1COc2c(-c3[nH]c4ncccc4c3-c3cn(C)nc3OC(F)F)c(C(F)F)nn2C1` [EX. 567] had a 50% inhibitory concentration (IC50) below 10 nM.
Turning to `C[C@@H](O)COC(=O)N[C@@H]1COc2c(-c3[nH]c4ncccc4c3-c3cn(C)nc3OC(F)F)c(C(F)F)nn2C1` [EX. 568], the IC50 on MRGPRX2 (class symbols) is below 10 nM.
`Cn1cc(-c2c(-c3c(C(F)F)nn4c3OC[C@@H](NC(=O)N3CC(O)C3)C4)[nH]c3ncccc23)c(OC(F)F)n1` [EX. 569] showed an IC50 on MRGPRX2 (class symbols) below 10 nM.
In the case of `COC(=O)N[C@@H]1COc2c(-c3[nH]c4ncccc4c3-c3cn(C)nc3OC(F)F)c(C(F)F)nn2C1` [EX. 571], the figures for the IC50 against MRGPRX2 and against MRGPRX2 (class symbols) were 1.2 nM and below 10 nM, respectively.
As for `CCc1nn2c(c1-c1[nH]c3ncccc3c1-c1cn(C)nc1OC(F)F)OC[C@@H](NC(=O)OC)C2` [EX. 572], the IC50 is 3.6 nM on MRGPRX2 and below 10 nM against MRGPRX2 (class symbols).
Turning to `CCOC(=O)N[C@@H]1COc2c(-c3[nH]c4ncccc4c3-c3cn(C)nc3OC(F)F)c(C(F)F)nn2C1` [EX. 573], the IC50 against MRGPRX2 (class symbols) is below 10 nM.
Consider `Cn1cc(-c2c(-c3c(C(F)F)nn4c3OC[C@@H](NS(=O)(=O)C3(C)CC3)C4)[nH]c3ncccc23)c(OC(F)F)n1` [EX. 574], for which the half-inhibitory concentration (IC50) on MRGPRX2 (class symbols) is below 10 nM.
For `CC(C)OC(=O)N[C@@H]1COc2c(-c3[nH]c4ncccc4c3-c3cn(C)nc3OC(F)F)c(C(F)F)nn2C1` [EX. 575], the IC50 on MRGPRX2 (class symbols) is below 10 nM.
Take `CN(C)S(=O)(=O)N[C@@H]1COc2c(-c3[nH]c4ncccc4c3-c3cn(C)nc3OC(F)F)c(C(F)F)nn2C1` [EX. 576]: the IC50 against MRGPRX2 (class symbols) is below 10 nM.
Compound `Cn1cc(-c2c(-c3c(C(F)F)nn4c3OC[C@@H](NS(=O)(=O)CCO)C4)[nH]c3ncccc23)c(OC(F)F)n1` [EX. 577] registered an IC50 against MRGPRX2 (class symbols) below 10 nM.
As to `COC(=O)N(C)[C@@H]1COc2c(-c3[nH]c4ncccc4c3-c3cn(C)nc3OC(F)F)c(C(F)F)nn2C1` [EX. 578], at MRGPRX2 (class symbols), the IC50 was below 10 nM.
`Cn1cc(-c2c(-c3c(C(F)F)nn4c3OC[C@@H](N3CCOC3=O)C4)[nH]c3ncccc23)c(OC(F)F)n1` [EX. 579] showed an IC50 at MRGPRX2 (class symbols) below 10 nM.
At MRGPRX2 (class symbols), `Cn1cc(-c2c(-c3c(C(F)F)nn4c3OC[C@@H](N3CCCS3(=O)=O)C4)[nH]c3ncccc23)c(OC(F)F)n1` [EX. 580] yielded an IC50 below 10 nM.
`Cn1cc(-c2c(-c3c(C(F)F)nn4c3OC[C@@H](NS(=O)(=O)CCCO)C4)[nH]c3ncccc23)c(OC(F)F)n1` [EX. 581] displayed an IC50 against MRGPRX2 (class symbols) below 10 nM.
Take `CN[C@@H]1COc2c(-c3[nH]c4ncccc4c3-c3cn(C)nc3OC(F)F)c(C(F)F)nn2C1` [EX. 582, (S)-3-(3-(3-(difluoromethoxy)-1-methyl-1H-pyrazol-4-yl)-1H-pyrrolo[2,3-b]pyridin-2-yl)-2-(difluoromethyl)-N-methyl-6,7-dihydro-5H-pyrazolo[5,1-b] [1,3]oxazin-6-amine]: the IC50 against MRGPRX2 (class symbols) was below 10 nM.
At MRGPRX2 (class symbols), `Cn1cc(-c2c(-c3c(C(F)F)nn4c3OC[C@@H](OCC(N)=O)C4)[nH]c3ncccc23)c(OC(F)F)n1` [EX. 583, (S)-2-((3-(3-(3-(difluoromethoxy)-1-methyl-1H-pyrazol-4-yl)-1H-pyrrolo[2,3-b]pyridin-2-yl)-2-(difluoromethyl)-6,7-dihydro-5H-pyrazolo[5,1-b] [1,3]oxazin-6-yl)oxy) acetamide] had an IC50 below 10 nM.
Same read-out and setting: in the case of `Cn1cc(-c2c(-c3c(C(F)F)nn4c3OC[C@@H](NC(=O)OCC(N)=O)C4)[nH]c3ncccc23)c(OC(F)F)n1` [EX. 584] it was below 10 nM; in that of `Cn1cc(-c2c(-c3c(C(F)F)nn4c3OC[C@@H](NC(=O)C3(C(N)=O)CC3)C4)[nH]c3ncccc23)c(OC(F)F)n1` [EX. 585], below 10 nM.
On the same count and under the same terms, in the case of `Cn1cc(-c2c(-c3c(C(F)F)nn4c3OC[C@@H](NC(=O)CC(C)(C)O)C4)[nH]c3ncccc23)c(OC(F)F)n1` [EX. 586, (S)—N-(3-(3-(3-(difluoromethoxy)-1-methyl-1H-pyrazol-4-yl)-1H-pyrrolo[2,3-b]pyridin-2-yl)-2-(difluoromethyl)-6,7-dihydro-5H-pyrazolo[5,1-b] [1,3]oxazin-6-yl)-3-hydroxy-3-methylbutanamide] it was below 10 nM; in that of `Cn1cc(-c2c(-c3c(C(F)F)nn4c3OC[C@@H](NC(=O)C(C)(C)O)C4)[nH]c3ncccc23)c(OC(F)F)n1` [EX. 587], below 10 nM; in that of `Cn1cc(-c2c(-c3c(C(F)F)nn4c3OC[C@@H](NC(=O)C3(F)CC3)C4)[nH]c3ncccc23)c(OC(F)F)n1` [EX. 588], below 10 nM.
Take `Cn1cc(-c2c(-c3c(C(F)F)nn4c3OC[C@@H](NC(=O)C3(O)CC3)C4)[nH]c3ncccc23)c(OC(F)F)n1` [EX. 589]: on MRGPRX2 (class symbols), the IC50 is below 10 nM.
`CNC(=O)COC(=O)N[C@@H]1COc2c(-c3[nH]c4ncccc4c3-c3cn(C)nc3OC(F)F)c(C(F)F)nn2C1` [EX. 590] registered an IC50 on MRGPRX2 (class symbols) below 10 nM.
Still for that read-out and setting: in the case of `N#Cc1ncccc1-c1c(-c2c(C(F)F)nn3c2OC[C@@H](NC(=O)C2CC2)C3)[nH]c2ncccc12` [EX. 591] it was below 10 nM; in that of `Cn1cc(-c2c(-c3c(C(F)F)nn4c3OC[C@@H](NC(=O)C3CC3)C4)[nH]c3ncccc23)c(C#N)n1` [EX. 593, (S)—N-(3-(3-(3-cyano-1-methyl-1H-pyrazol-4-yl)-1H-pyrrolo[2,3-b]pyridin-2-yl)-2-(difluoromethyl)-6,7-dihydro-5H-pyrazolo[5,1-b] [1,3]oxazin-6-yl) cyclopropanecarboxamide], below 10 nM.
Regarding `Cc1nn2c(c1-c1[nH]c3ncccc3c1-c1cccnc1OC(F)F)OC[C@@H](NC(=O)C1CC1)C2` [EX. 594, (S)—N-(3-(3-(2-(difluoromethoxy)pyridin-3-yl)-1H-pyrrolo[2,3-b]pyridin-2-yl)-2-methyl-6,7-dihydro-5H-pyrazolo[5,1-b] [1,3]oxazin-6-yl) cyclopropanecarboxamide], the IC50 against MRGPRX2 (class symbols) is below 10 nM.
With `C[C@H](O)CN(C)C(=O)N[C@@H]1COc2c(-c3[nH]c4ncccc4c3-c3cn(C)nc3OC(F)F)c(C(F)F)nn2C1` [EX. 595, 3-((S)-3-(3-(3-(difluoromethoxy)-1-methyl-1H-pyrazol-4-yl)-1H-pyrrolo[2,3-b]pyridin-2-yl)-2-(difluoromethyl)-6,7-dihydro-5H-pyrazolo[5,1-b] [1,3]oxazin-6-yl)-1-((S)-2-hydroxypropyl)-1-methylurea], on MRGPRX2 (class symbols), the IC50 is below 10 nM.
